Values joined by “and” are separate entries in the source; they are usually repeats but may differ in a detail not shown here. Equal values may be shown once. Toxic doses and inconclusive results are not listed.
System: CD2F1 mice, L1210 leukemia ip, survival T/C
Assay: NCI In Vivo Anticancer Drug Screen. Data for tumor model L1210 Leukemia (intraperitoneal) in CD2F1 (CDF1) mice
Details: higher = longer survival
Summary of the method: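 Ratio T/C, where T is the treated-group value and C the vehicle-dosed control value, from mice implanted with a transplantable tumor.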

[1] = endpoint: mean survival time, dose: 100.0 mg/kg/injection, schedule: Q01DX009 (ip), vehicle: saline with Tween-80
[2] = endpoint: mean survival time, dose: 200.0 mg/kg/injection, schedule: Q01DX009 (ip), vehicle: saline with Tween-80
[3] = endpoint: mean survival time, dose: 400.0 mg/kg/injection, schedule: Q01DX009 (ip), vehicle: saline with Tween-80
[4] = endpoint: mean survival time, dose: 100.0 mg/kg/injection, schedule: Q04DX003 (ip), vehicle: saline with Tween-80
[5] = endpoint: mean survival time, dose: 200.0 mg/kg/injection, schedule: Q04DX003 (ip), vehicle: saline with Tween-80
[6] = endpoint: mean survival time, dose: 400.0 mg/kg/injection, schedule: Q04DX003 (ip), vehicle: saline with Tween-80
[7] = endpoint: mean survival time, dose: 50.0 mg/kg/injection, schedule: Q01DX009 (ip), vehicle: saline
[8] = endpoint: mean survival time, dose: 100.0 mg/kg/injection, schedule: Q01DX009 (ip), vehicle: saline
[9] = endpoint: mean survival time, dose: 50.0 mg/kg/injection, schedule: Q01DX009 (ip), vehicle: saline with Tween-80
[10] = endpoint: mean survival time, dose: 100.0 mg/kg/injection, schedule: Q01DX001 (ip), vehicle: Klucel (hydroxypropylcellulose) (HPC)
[11] = endpoint: mean survival time, dose: 200.0 mg/kg/injection, schedule: Q01DX001 (ip), vehicle: Klucel (hydroxypropylcellulose) (HPC)
[12] = endpoint: mean survival time, dose: 100.0 mg/kg/injection, schedule: Q01DX001 (ip), vehicle: saline with Tween-80
[13] = endpoint: mean survival time, dose: 200.0 mg/kg/injection, schedule: Q01DX001 (ip), vehicle: saline with Tween-80
[14] = endpoint: mean survival time, dose: 400.0 mg/kg/injection, schedule: Q01DX001 (ip), vehicle: saline with Tween-80

C[C@@H]1C[C@@H]([C@H](O)CC2CC(=O)NC(=O)C2)C(=O)[C@@H](C)C1 was tested, and the T/C (endpoint: mean survival time, dose: 5.0 mg/kg/injection, schedule: Q01DX009 (ip), vehicle: saline) was 104 % of control and 109 % of control, the T/C (endpoint: mean survival time, dose: 10.0 mg/kg/injection, schedule: Q01DX007 (ip), vehicle: saline) was 107 % of control and the T/C (endpoint: mean survival time, dose: 10.0 mg/kg/injection, schedule: Q03DX003 (ip), vehicle: saline) was 96 % of control. For the same compound, the T/C (endpoint: mean survival time, dose: 10.0 mg/kg/injection, schedule: Q04DX003 (ip), vehicle: saline) was 100 % of control, the T/C (endpoint: mean survival time, dose: 20.0 mg/kg/injection, schedule: Q01DX007 (ip), vehicle: saline) was 107 % of control and the T/C (endpoint: mean survival time, dose: 20.0 mg/kg/injection, schedule: Q03DX003 (ip), vehicle: saline) was 100 % of control. The T/C (endpoint: mean survival time, dose: 20.0 mg/kg/injection, schedule: Q04DX003 (ip), vehicle: saline) was 100 % of control, the T/C (endpoint: mean survival time, dose: 40.0 mg/kg/injection, schedule: Q01DX007 (ip), vehicle: saline) was 115 % of control and the T/C (endpoint: mean survival time, dose: 40.0 mg/kg/injection, schedule: Q03DX003 (ip), vehicle: saline) was 104 % of control. For the same compound, the T/C (endpoint: mean survival time, dose: 40.0 mg/kg/injection, schedule: Q04DX003 (ip), vehicle: saline) was 106 % of control, the T/C (endpoint: mean survival time, dose: 80.0 mg/kg/injection, schedule: Q01DX009 (ip), vehicle: saline) was 120 % of control and the T/C (endpoint: mean survival time, dose: 160.0 mg/kg/injection, schedule: Q01DX009 (ip), vehicle: saline) was 89 % of control. The T/C (endpoint: median survival time, dose: 12.5 mg/kg/injection, schedule: Q01DX009 (ip), vehicle: saline) was 109 % of control, the T/C (endpoint: median survival time, dose: 25.0 mg/kg/injection, schedule: Q01DX009 (ip), vehicle: saline) was 114 % of control and 119 % of control and the T/C (endpoint: median survival time, dose: 200.0 mg/kg/injection, schedule: Q01DX009 (ip), vehicle: saline) was 101 % of control.
CCCCCCCC(=O)Nc1ccc(C)c(C)c1 was tested, and the T/C [1] was 89 % of control, the T/C [2] was 91 % of control and the T/C [3] was 96 % of control.
OCC1OC(n2cc(I)c3c(Cl)ncnc32)C(O)C1O (centres undefined) was tested, and the T/C (endpoint: mean survival time, dose: 100.0 mg/kg/injection, schedule: Q01DX001 (ip), vehicle: saline) was 98 % of control, the T/C (endpoint: mean survival time, dose: 200.0 mg/kg/injection, schedule: Q01DX001 (ip), vehicle: saline) was 110 % of control and the T/C (endpoint: mean survival time, dose: 400.0 mg/kg/injection, schedule: Q01DX001 (ip), vehicle: saline) was 110 % of control.
CC(C)(C)OOC(=O)C1CCCCCCC1 was tested, and the T/C [4] was 98 % of control, the T/C [5] was 96 % of control and the T/C [6] was 96 % of control.
In the case of CN(Cc1ccccc1)c1ccc2nc(N)nc(N)c2c1, the T/C [4] was 103 % of control and the T/C [5] was 110 % of control.
For CC(=O)N(/C=C\C=C\c1sc2ccccc2[n+]1C)c1ccccc1, the T/C (endpoint: mean survival time, dose: 12.5 mg/kg/injection, schedule: Q01DX009 (ip), vehicle: other) was 108 % of control and the T/C (endpoint: mean survival time, dose: 25.0 mg/kg/injection, schedule: Q01DX009 (ip), vehicle: other) was 115 % of control.
With CCN(CC)Cc1ccccn1 the T/C (endpoint: mean survival time, dose: 25.0 mg/kg/injection, schedule: Q01DX009 (ip), vehicle: saline) was 94 % of control, the T/C [7] was 97 % of control and the T/C [8] was 92 % of control. For the same compound, the T/C (endpoint: mean survival time, dose: 100.0 mg/kg/injection, schedule: Q04DX003 (ip), vehicle: saline) was 95 % of control.
With COc1ccc(OC)cc1 the T/C (endpoint: mean survival time, dose: 100.0 mg/kg/injection, schedule: Q01DX001 (ip), vehicle: other) was 103 % of control, the T/C (endpoint: mean survival time, dose: 200.0 mg/kg/injection, schedule: Q01DX001 (ip), vehicle: other) was 94 % of control and the T/C (endpoint: mean survival time, dose: 400.0 mg/kg/injection, schedule: Q01DX001 (ip), vehicle: other) was 101 % of control.
With C[N+](C)(C)CCOC(=O)Nc1ccc(C(c2ccc(NC(=O)OCC[N+](C)(C)C)cc2)c2ccc(NC(=O)OCC[N+](C)(C)C)cc2)cc1 the T/C (endpoint: mean survival time, dose: 0.25 mg/kg/injection, schedule: Q04DX003 (ip), vehicle: saline with Tween-80) was 97 % of control, the T/C (endpoint: mean survival time, dose: 0.5 mg/kg/injection, schedule: Q04DX003 (ip), vehicle: saline with Tween-80) was 96 % of control and the T/C (endpoint: mean survival time, dose: 1.0 mg/kg/injection, schedule: Q04DX003 (ip), vehicle: saline with Tween-80) was 94 % of control.
With O=[N+]([O-])c1ccc(CSc2ncnc3c2ncn3C2OC(COP(=O)(O)O)C(O)C2O)cc1 (centres undefined) the T/C (endpoint: mean survival time, dose: 12.5 mg/kg/injection, schedule: Q01DX005 (ip), vehicle: water) was 100 % of control, the T/C (endpoint: mean survival time, dose: 25.0 mg/kg/injection, schedule: Q01DX005 (ip), vehicle: water) was 96 % of control and the T/C (endpoint: mean survival time, dose: 50.0 mg/kg/injection, schedule: Q01DX005 (ip), vehicle: water) was 104 % of control. For the same compound, the T/C (endpoint: mean survival time, dose: 100.0 mg/kg/injection, schedule: Q01DX005 (ip), vehicle: water) was 105 % of control and the T/C (endpoint: mean survival time, dose: 200.0 mg/kg/injection, schedule: Q01DX005 (ip), vehicle: water) was 111 % of control.
Nc1ccccc1OCCCn1cc(-c2ccc(Cl)c(Cl)c2)c(N)nc1=O was tested, and the T/C (endpoint: mean survival time, dose: 50.0 mg/kg/injection, schedule: Q01DX009 (ip), vehicle: Klucel (hydroxypropylcellulose) (HPC)) was 94 % of control, the T/C (endpoint: mean survival time, dose: 100.0 mg/kg/injection, schedule: Q01DX009 (ip), vehicle: Klucel (hydroxypropylcellulose) (HPC)) was 101 % of control and the T/C (endpoint: mean survival time, dose: 200.0 mg/kg/injection, schedule: Q01DX009 (ip), vehicle: Klucel (hydroxypropylcellulose) (HPC)) was 90 % of control.
With NC(CSC(c1ccccc1)(c1ccccc1)c1ccc(-c2ccccc2)cc1)C(=O)O (centres undefined) the T/C [7] was 111 % of control, the T/C [8] was 108 % of control and the T/C (endpoint: mean survival time, dose: 200.0 mg/kg/injection, schedule: Q01DX009 (ip), vehicle: saline) was 105 % of control. The T/C (endpoint: mean survival time, dose: 400.0 mg/kg/injection, schedule: Q01DX009 (ip), vehicle: saline) was 100 % of control.
With CNC(=O)Oc1coc(CCl)cc1=O the T/C (endpoint: mean survival time, dose: 25.0 mg/kg/injection, schedule: Q01DX009 (ip), vehicle: saline with Tween-80) was 98 % of control, the T/C [9] was 107 % of control and the T/C (endpoint: mean survival time, dose: 50.0 mg/kg/injection, schedule: Q04DX003 (ip), vehicle: saline with Tween-80) was 97 % of control. The T/C [1] was 101 % of control and the T/C [4] was 101 % of control.
With NC(=O)c1cc([N+](=O)[O-])ccc1NN=NCCCl the T/C (endpoint: mean survival time, dose: 25.0 mg/kg/injection, schedule: Q01DX001 (ip), vehicle: Klucel (hydroxypropylcellulose) (HPC)) was 112 % of control, the T/C (endpoint: mean survival time, dose: 50.0 mg/kg/injection, schedule: Q01DX001 (ip), vehicle: Klucel (hydroxypropylcellulose) (HPC)) was 150 % of control and the T/C [10] was 183 % of control. The T/C [11] was 231 % of control.
c1ccc([Si]c2ccccc2)cc1 was tested, and the T/C [4] was 104 % of control, the T/C [5] was 102 % of control and the T/C [6] was 102 % of control.
O=C(CCl)c1ccc(Cl)cc1 was tested, and the T/C (endpoint: mean survival time, dose: 12.0 mg/kg/injection, schedule: Q01DX009 (ip), vehicle: saline with Tween-80) was 102 % of control, the T/C (endpoint: mean survival time, dose: 24.0 mg/kg/injection, schedule: Q01DX009 (ip), vehicle: saline with Tween-80) was 104 % of control and the T/C (endpoint: mean survival time, dose: 48.0 mg/kg/injection, schedule: Q01DX009 (ip), vehicle: saline with Tween-80) was 103 % of control.
With COc1cc(OC)c(NC(=O)Nc2ccc(Nc3ccccc3)cc2)cc1Cl the T/C [9] was 90 % of control, the T/C [1] was 94 % of control and the T/C [2] was 90 % of control.
C=C(C)C1CCC2(C(=O)O)CCC3(C)C(CCC4C5(C)CCC(OC(C)=O)C(C)(C)C5CCC43C)C12 (centres undefined) was tested, and the T/C [10] was 93 % of control, the T/C [11] was 93 % of control and the T/C (endpoint: mean survival time, dose: 400.0 mg/kg/injection, schedule: Q01DX001 (ip), vehicle: Klucel (hydroxypropylcellulose) (HPC)) was 91 % of control.
With CCOc1ccc(N=[N+]([O-])c2ccc(OCC)cc2)cc1 the T/C [1] was 90 % of control, the T/C [4] was 96 % of control and the T/C [2] was 97 % of control. For the same compound, the T/C [5] was 98 % of control, the T/C [3] was 96 % of control and the T/C [6] was 101 % of control.
In the case of COc1ccc(Cl)cc1[N+](=O)[O-], the T/C [4] was 97 % of control, the T/C [5] was 94 % of control and the T/C [6] was 95 % of control.
In the case of Cc1nnc(-c2ccccc2)c(-c2ccccc2)n1, the T/C (endpoint: mean survival time, dose: 50.0 mg/kg/injection, schedule: Q04DX002 (ip), vehicle: saline with Tween-80) was 103 % of control, the T/C [12] was 93 % of control and the T/C (endpoint: mean survival time, dose: 100.0 mg/kg/injection, schedule: Q04DX002 (ip), vehicle: saline with Tween-80) was 98 % of control. For the same compound, the T/C [13] was 95 % of control, the T/C (endpoint: mean survival time, dose: 200.0 mg/kg/injection, schedule: Q04DX002 (ip), vehicle: saline with Tween-80) was 95 % of control and the T/C [14] was 91 % of control.
With O=S(=O)(Nc1ccc(NS(=O)(=O)c2ccccc2)c(N2CCOCC2)c1)c1ccccc1 the T/C [12] was 101 % of control, the T/C [13] was 101 % of control and the T/C [14] was 92 % of control.
In the case of N#CCCCCCCN=[N+]=[N-], the T/C (endpoint: mean survival time, dose: 75.0 mg/kg/injection, schedule: Q01DX001 (ip), vehicle: saline) was 98 % of control and the T/C (endpoint: mean survival time, dose: 150.0 mg/kg/injection, schedule: Q01DX001 (ip), vehicle: saline) was 98 % of control.
With COC(=O)C(C(=O)OC)C(Br)(OC(C)=O)OC(C)=O the T/C [1] was 97 % of control, the T/C [2] was 104 % of control and the T/C [3] was 109 % of control.

— PubChem BioAssay AID256 (DTP/NCI, 2004)
